Broadly, the LD50 is the dose expected to kill half of the subjects tested.

Series [1] can be described thus: Body weight of tumor bearing CBA mice (Ehrlich carcinoma). It is filed as in vivo.
Series [2] in a line: Acute toxicity LD50, subcutaneous, rats.
Series [3] is described as follows: Acute toxicity LD50, subcutaneous, mice.
The conditions of series [4]: rats, subcutaneous; reported; cited from earlier work.
Series [5] can be described thus: O2^- scavenging / SOD activity, DMSO-KO2 nitro blue tetrazolium method. Conditions: mean. It is filed as biochemical.
Description: The SOD activity of Orgotein and of tumor homogenates is assayed by the method of Beauchamp and Fridovich. Reaction mixtures contain 0.05M potassium phosphate buffer (pH 7.8) with 10^-3 M diethylenetriaminepentaacetic acid, 10^-4 M of xanthine, 5.6×10^-5 M of nitro blue tetrazolium, 10^-3 units of xanthine oxidase and 1 unit of catalase. Addition of 5×10^-3 M NaCN to this mixture inhibits CuZnSOD activity and allows the measurement of the activity of the cyanid insensitive MnSOD alone. The rate of blue formazan formation is measured by following the change of absorbance at 560 nm with a Cary Model 15 spectrophotometer. The sensitivity of the assay was such that 1 unit equaled 14±1 ng of pure erythrocyte SOD. The amount of protein in each sample is assayed using a conventional method. […] After bones and muscles are removed, the tumor tissue is rinsed and minced in 0.05 M potassium phosphate buffer (pH 7.8) and homogenized in a motor-driven Teflon pestle homogenizer. […] CuDIPS is dissolved in 10% Tween 80-saline. This alternate method is chosen due to the length of previous procedure and lipid insolubility of some of the reactants of the previous assay. Free O2^- is released when DMSO-KO2 is added to an aqueous solution. […] The formation of blue formazan is determined by recording the final absorbance of the assay mixture at 560 nm with a Cary Model 15 spectrophotometer. […]
Series [6] deals with neuroblastoma cell clone NBP2. It is filed as cell-based, mouse. Conditions: 3 days; for % differentiation: control 8.0 ± 3.7; for % differentiation / Cell number ×10^5: mean ± S.D.; for Cell number ×10^5: control 17.1 ± 1.9. How it is done: The neuroblastoma cell clone NBP2 provided by Dr. K. N. Prasad (University of Colorado), is maintained according to the procedure of Prasad and Hsie, Prasad, K. N. and Hsie, A. N., Nature New Biol. 233:141 (1971), hereby incorporated by reference. Cells are grown as a monolayer in 75 cm^2 Falcon plastic tissue culture flasks containing F-12 medium supplemented with 10% gamma globulin-free new born calf serum, penicillin (100 U/ml) and streptomycin (100 μg/ml). Cultures are maintained in a humidified atmosphere of 5% CO2 in a water jacketed incubator at 37° C. […] Only exponentially growing cells are used in the experiment. […] Medium, serum, antibiotics, and pancreatin are purchased from Grand Island Biological Company. […] Fifty-thousand cells were seeded in each […] plastic petri dish containing 5 ml of the growth medium. Cells are treated with CuDIPS 24 hours after seeding. CuDIPS is dissolved in ethanol to give a final concentration of 10, 25, or 50 μg/ml of copper compound in the medium. The concentration of ethanol in the medium is kept constant at 1% in all the treated and control dishes. Culture dishes containing 1% ethanol serve as controls. One day after the start of treatments and daily afterwards, fresh drug and medium are provided in each dish. To avoid possible degradation, CuDIPS is dissolved in ethanol immediately before use. The experiment is done in triplicate. Three days after the initial treatments the number of cells and percent differentiation of cells are scored in each dish. Four hundred cells per culture dish from at least three different regions are examined with a Leitz Divert phase contrast microscope. Cells with one or more processes at least twice as long as the soma diameter (processes usually longer than 50 microns) are scored as differentiated. To count the number of cells, cells are harvested with Pancreatin and the number of cells in each dish is determined by counting cells in a hemocytometer.

Series [7] deals with Sarcoma 180 cells. In words: Tumor growth and survival of CF1 mice implanted with Sarcoma 180 cells. It is filed as in vivo. How it is done: Autopsies are performed on all dead animals.
Series [8] can be described thus: SOD activity, xanthine-xanthine oxidase nitro blue tetrazolium method (Beauchamp and Fridovich). The class given is biochemical. How it is done:
Orgotein, a generic name for CuZnSOD derived from bovine liver, is obtained from Diagnostic Data Incorporated, Mountain View, California. It is 98% pure CuZnSOD isolated from bovine liver and had 3,300 units of pure erythrocyte SOD activity/mg protein when assayed by the method of Beauchamp, C. and Fridovich, I., Superoxide Dismutase: Improved Assays and an Assay Applicable to Acrylamide Gel., Anal. Biochem. 44:276-287 (1971), hereby incorporated by reference. Orgotein was dissolved in USP grade nonpyrogenic sterile saline.
The SOD activity of Orgotein and of tumor homogenates is assayed by the method of Beauchamp and Fridovich. Reaction mixtures contain 0.05M potassium phosphate buffer (pH 7.8) with 10^-3 M diethylenetriaminepentaacetic acid, 10^-4 M of xanthine, 5.6×10^-5 M of nitro blue tetrazolium, 10^-3 units of xanthine oxidase and 1 unit of catalase. […] The rate of blue formazan formation is measured by following the change of absorbance at 560 nm with a Cary Model 15 spectrophotometer. […] O2^- scavenging ability of CuDIPS is determined by a similar assay method; the only difference is that dimethyl sulfoxide (DMSO) solvated potassium superoxide (KO2) is used to generate O2^- instead of xanthine and xanthine oxidase. […] The formation of blue formazan is determined by recording the final absorbance of the assay mixture at 560 nm with a Cary Model 15 spectrophotometer. […]

For series [9], the system named is Sarcoma 180 cells. Nature of the series: Viability of Sarcoma 180 cells incubated in Orgotein. The class given is cell-based, mice. To be noted: 2.5×10^7 cells/ml; 0.8 mg/ml, one hour. How it is done: Table II and Chart II show the survival times of these tumor bearing mice; there is a 23% increase in mean survival time in the Orgotein treated group (p less than 0.1). Viability of the Sarcoma 180 cells (2.5×10^7 cells/ml) is unchanged when they are incubated in 0.8 mg/ml Orgotein for one hour, showing that the effect of Orgotein is probably not due to cytotoxicity.

The mark [10] stands for this setting: 50 μg/ml, listed as Cu(II)(3,5-diisopropylsalicylate)2.

Where “and” joins values, the source holds several entries; their conditions need not be identical. Equal values may be shown once. Entries after “also recorded” stand apart in the source; their conditions may differ. Read-outs that look alike come from different tables or passages of the source.

Consider `O=S(=O)([O-])[O-].[Cu+2]` [CuSO4, copper sulfate], for which, in [1] (CuSO4 0.5 mg in 0.1 ml, 5 days), the body weight change entry is recorded as “continuous loss of weight”.
As to `CC(=O)Oc1ccccc1C(=O)[O-].CC(=O)Oc1ccccc1C(=O)[O-].CC(=O)Oc1ccccc1C(=O)[O-].CC(=O)Oc1ccccc1C(=O)[O-].[Cu+2].[Cu+2]` [Cu(II)2 (aspirinate)4], the LD50 is reported as 760 mg/kg in series [2] and “greater than 320 mg/kg” in [3].
As to `CC(C)c1cc(C(=O)[O-])c(O)c(C(C)C)c1.CC(C)c1cc(C(=O)[O-])c(O)c(C(C)C)c1.[Cu+2]` [CuDIPS, Cu(II) (3,5-diisopropylsalicylate)2], the LD50 in [4] is 240 mg/kg and 240 ± 33 mg/kg. The SOD activity in [5] is 17,400±1,800 units of SOD activity/mg of the compound. In addition, the body weight change entry in series [1] (mouse, in vivo) is on record as “no weight loss was observed”. Besides, the “% differentiation” value in series [6] (10 μg/ml, listed as Cu(II)(3,5-diisopropylsalicylate)2) worked out at 7.4 ± 2.6%; in [6] (25 μg/ml) it was 22.4±2.6%; in series [6] (25 μg/ml, listed as Cu(II)(3,5-diisopropylsalicylate)2), 22.4 ± 2.6%; in series [6] (50 μg/ml), 74.2±4.9%; in series [6] (setting [10]), 74.2 ± 4.9%. For the same compound, the “Cell number ×10^5” value in [6] (10 μg/ml, p less than 0.05) is given as “a small reduction in the number of cells per culture dish”; in [6] (10 μg/ml, p less than 0.05, listed as Cu(II)(3,5-diisopropylsalicylate)2), 12.7 ± 1.4 ×10^5; in series [6] (25 μg/ml, per culture dish) it was 7.1±1.2 ×10^5; in [6] (25 μg/ml, per culture dish, listed as Cu(II)(3,5-diisopropylsalicylate)2) it was 7.1 ± 1.2 ×10^5; in series [6] (50 μg/ml) it was “a remarkable reduction in cell population”; in series [6] (setting [10]), 1.4 ± 0.6 ×10^5. The “cell population relative to control” value in series [6] (25 μg/ml) is recorded as “less than half of the cell population”. In addition, the “morphology of treated cells” value in [6] (50 μg/ml) is “morphologically resembles mature neural cells”.
With “Orgotein: generic name for CuZnSOD derived from bovine liver”, the “tumor growth curve vs control after 27 days” value with Sarcoma 180 cells [7] (1.2 mg at 1 hour after implantation, after 27 days) is recorded as “the growth curves are the same”. For the same compound, the “reduction in tumor size” value in the series on Sarcoma 180 cells [7] (1.2 mg at 1 hour after implantation, p less than 0.05 between 11 and 27 days) was “reduction of tumor size; also recorded: a reduction in tumor size is observed”. In addition, in the series with Sarcoma 180 cells [7] (1.2 mg i.m. at 1 hour), the “Maximum Survival Time” value was found to be 90 days and the “Median Survival Time” value was found to be 53 days. Moreover, in the series with Sarcoma 180 cells [7] (1.2 mg i.m. at 1 hour, ± standard error, p less than 0.1), the “Mean Survival Time” value came to 53 ± 5 days. Further, the “increase in mean survival time” value in the series on Sarcoma 180 cells [7] (Orgotein treated group, p less than 0.1) is recorded as 23%. Besides, the “effect on tumor growth and survival” value in the series with Sarcoma 180 cells [7] (local injection, Sarcoma 180) is “a slight effect on the tumor growth and survival”. Also, the “tumor growth / survival, delayed treatment” value with Sarcoma 180 cells [7] (same dose given 5 or 10 days after transplantation) is listed as “no significant decrease in tumor growth or increase in survival is observed”. For the same compound, in series [8] (method of Beauchamp and Fridovich), the “SOD activity of Orgotein as obtained” value is recorded as 3,300 units of pure erythrocyte SOD activity/mg protein. Further, in [8] (xanthine-xanthine oxidase method), the SOD activity is reported as 49,500±300 units of SOD activity/mg protein. For the same compound, the “Viability of the Sarcoma 180 cells” value in the series with Sarcoma 180 cells [9] is given as “unchanged”.
In the case of `CC(C)c1cc(C(=O)O)c(O)c(C(C)C)c1` [DIPS, diisopropylsalicylic acid], in series [1] (DIPS i.m., single doses), the body weight change result is “loss of body weight”.

Source of the values: patent US4952607A, “Copper complex for treating cancer” (priority 1986, dated 1990).
